Measured values: patent US10588929B1, “Method of synthesizing watermelon seed particles” (KING SAUD UNIVERSITY, priority 2019, dated 2020)

Experiments:
Assay in all cases: Zone of inhibition, diffusion agar technique
Type in all cases: cell-based
Conditions in all cases: beyond well diameter of 6 mm, 100 μg of nanoparticles
[1] = system: Escherichia coli (RCMB 010054)
Protocol: (§1) Watermelon seed nanoparticles synthesized according to Example 1 were tested for antimicrobial activity against gram negative bacteria, gram positive bacteria, and fungi. Zone of inhibition studies were performed, the results of which are summarized in Table 2 (displaying mean zone of inhibition in mm ± standard deviation beyond well diameter of 6 mm). Testing used the diffusion agar technique with 6.0 mm well diameter and administration of 100 μg of the watermelon seed nanoparticles.

[2] = system: Aspergillus fumigatus (RCMB 02567)
Protocol: as §1

[3] = system: Bacillus subtilis (RCMB 010068)
Protocol: as §1

[4] = system: Streptococcus pneumoniae (RCMB 010011)
Protocol: as §1

With Gentamicin the “mean zone of inhibition” value [1] was 20.3 ± 0.58 mm.

`C[C@@H]1[C@H](O)[C@@H](C)/C=C/C=C/C=C/C=C/C=C/C=C/C=C/[C@H](O[C@@H]2O[C@H](C)[C@@H](O)[C@H](N)[C@@H]2O)C[C@@H]2O[C@](O)(C[C@@H](O)C[C@@H](O)[C@H](O)CC[C@@H](O)C[C@@H](O)CC(=O)O[C@H]1C)C[C@H](O)[C@H]2C(=O)O` [Amphotericin B] was tested, and the “mean zone of inhibition” value [2] was 21.7 ± 1.5 mm.

`CC1(C)S[C@@H]2[C@H](NC(=O)[C@H](N)c3ccccc3)C(=O)N2[C@H]1C(=O)O` [Ampicillin] was tested, and the “mean zone of inhibition” value [3] was 31.3 ± 1.5 mm and the “mean zone of inhibition” value [4] was 21.0 ± 1.0 mm.
